Source: ChEMBL document CHEMBL1130787, “Synthesis and in vitro antimalarial activity of sulfone endoperoxides” (Bioorg Med Chem Lett, 1998)

Test system: Plasmodium falciparum
Experiment: In vitro antimalarial activity against chloroquine-sensitive Plasmodium falciparum NF 54
Type: functional, organism-based

SMILES	IC50 [nM]
CC1(CSc2ccccc2)OOC2CC1CC[C@@]2(C)O.CC1(CSc2ccccc2)OOC2CC1CC[C@]2(C)O (some centres undefined)	> 2500
CCOC(=O)C(=O)OC1(C)CCC2CC1OO[C@]2(C)CS(=O)(=O)c1ccccc1 (some centres undefined)	140
CC1(OC(=O)C(=O)N(Cc2ccccc2)Cc2ccccc2)CCC2CC1OO[C@@]2(C)CS(=O)(=O)c1ccccc1 (some centres undefined)	21
CC(=O)CC(=O)OC1(C)CCC2CC1OO[C@]2(C)CS(=O)(=O)c1ccccc1 (some centres undefined)	73
CC(=O)OC1(C)CCC2CC1OO[C@@]2(C)CS(=O)(=O)c1ccccc1 (some centres undefined)	17
CC1(O)CCC2CC1OO[C@]2(C)CS(=O)(=O)c1ccccc1 (some centres undefined)	89
COc1ccc(COC2(C)CCC3CC2OO[C@@]3(C)CS(=O)(=O)c2ccccc2)cc1 (some centres undefined)	14
CC1(OC(=O)C(=O)N(Cc2ccccc2)Cc2ccccc2)CCC2CC1OO[C@]2(C)CS(=O)(=O)c1ccccc1 (some centres undefined)	81
CC1(O)CCC2CC1OO[C@@]2(C)CS(=O)(=O)c1ccccc1 (some centres undefined)	55
CC(=O)OC1(C)CCC2CC1OO[C@]2(C)CS(=O)(=O)c1ccccc1 (some centres undefined)	17
CC(=O)CC(=O)OC1(C)CCC2CC1OO[C@@]2(C)CS(=O)(=O)c1ccccc1 (some centres undefined)	46
CCOC(=O)C(=O)OC1(C)CCC2CC1OO[C@@]2(C)CS(=O)(=O)c1ccccc1 (some centres undefined)	170
C[C@@H]1C(=O)C[C@H]2CC1OO[C@@]2(C)/C=C\c1ccc(C(F)(F)F)cc1C(F)(F)F (single isomer, unassigned) [ARTEFLENE]	71
C[C@@H]1CC[C@H]2[C@@H](C)C(=O)O[C@@H]3O[C@@]4(C)CC[C@@H]1[C@]32OO4 [ARTEMISININ]	9.3
